Which logP does the source give for `COc1cc(Cl)c(OC)cc1Cl` here?
The logP was 3.46.

For `O=C(O)COc1nc(Cl)c(Cl)cc1Cl`, which logP is on record?
Its logP is 2.09.

With `C=C1C(CCl)(CCl)C2(Cl)C(Cl)C(Cl)C1(Cl)C2(Cl)Cl` (mixture of isomers) as the molecule, how does the logP read?
The logP was 5.5.

For `CCOC(=O)C(C)N(C(=O)c1ccccc1)c1ccc(Cl)c(Cl)c1` (racemic), which logP is on record?
Its logP is 4.57.

With `Brc1c(Br)c(Br)c(Br)c(Br)c1Br` as the molecule, how does the logP read?
The logP was 6.51.

Which logP does the source give for `CC(C)OC(=O)[C@H](C)N(C(=O)c1ccccc1)c1ccc(F)c(Cl)c1` (racemic) here?
Its logP is 4.41.

For `CCN(CC)C(=O)C(Cl)=C(C)OP(=O)(OC)OC`, which logP is on record?
The logP was 1.34.

Which logP does the source give for `COC(=O)C(C)N(C(=O)c1ccccc1)c1ccc(F)c(Cl)c1` (racemic) here?
Its logP is 3.48.

For `ClC=C(c1ccc(Cl)cc1)c1ccc(Cl)cc1`, which logP is on record?
Its logP is 5.27.

For `COP(=S)(OC)Oc1ccc(S(=O)(=O)N(C)C)cc1`, which logP is on record?
Its logP is 2.28.

Which logP does the source give for `CC(C)Oc1cc(-n2nc(C(C)(C)C)oc2=O)c(Cl)cc1Cl` here?
The logP was 4.09.

With `COc1c(Cl)ccc(Cl)c1C(=O)O` as the molecule, how does the logP read?
The logP was 3.01.

For `Clc1ccc(-c2cc(Cl)ccc2Cl)cc1`, which logP is on record?
The logP was 5.56.

With `Cc1nc(C)c(Cl)c(O)c1Cl` as the molecule, how does the logP read?
The logP was 0.5.

— the SangsterLogP compilation
